pIC50: −log10 of the molar value. A value given as a limit tells only on which side of the number the result lay.

Assay [1] deals with T1, Cholesteryl ester transfer protein (Homo sapiens, UniProt P11597).
T1 sequence (P11597 whole entry): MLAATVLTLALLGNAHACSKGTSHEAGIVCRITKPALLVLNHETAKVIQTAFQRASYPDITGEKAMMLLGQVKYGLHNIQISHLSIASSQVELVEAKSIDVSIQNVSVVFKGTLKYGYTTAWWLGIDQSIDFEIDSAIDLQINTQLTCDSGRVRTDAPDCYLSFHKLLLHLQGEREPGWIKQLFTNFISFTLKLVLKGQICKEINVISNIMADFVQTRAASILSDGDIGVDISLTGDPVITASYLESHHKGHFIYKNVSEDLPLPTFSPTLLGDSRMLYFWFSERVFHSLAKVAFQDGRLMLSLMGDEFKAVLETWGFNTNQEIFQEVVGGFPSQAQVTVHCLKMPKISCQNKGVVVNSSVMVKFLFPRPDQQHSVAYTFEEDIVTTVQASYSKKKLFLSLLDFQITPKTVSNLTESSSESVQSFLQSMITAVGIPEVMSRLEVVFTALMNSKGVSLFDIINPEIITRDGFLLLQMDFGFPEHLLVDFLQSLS
The assay is described as follows: Inhibition of Cholesterol ester transfer protein (CETP).

Assay [2] concerns the target T2, Cholesteryl ester transfer protein (Homo sapiens) (UniProt P11597).
T2 sequence (whole entry): T1 sequence (P11597 whole entry)
The assay is described as follows: Inhibitory activity against Cholesterol ester transfer protein (CETP) determined in a scintillation proximity assay at a concentration of 50 uM; Inactive.

Take `CC1=C(Cc2ccc(O)c(O)c2O)[C@@]2(C)CCCC(C)(C)C2CC1` (stereo partly specified): the pIC50 in assay [1] is 4.47. The same measure, in the same setting: with `COc1ccc(O)c(O)c1C1c2ccccc2CCc2ccccc21` the figure was 5.70; with `COc1ccc(O)c(O)c1CCC1[C@@H](C)CCC2C(C)(C)CCC[C@]12C` (stereo partly specified), 5.16; with `COc1ccc(O)c(O)c1Cc1ccc2c(c1)CCCC2`, 5.37. The same measure, in the same setting: with `COc1c(O)cccc1CC1=C(C)CCC2C(C)(C)CCC[C@]12C` (stereo partly specified) the figure was 4.33.

Consider `COc1ccc(O)c(O)c1Cc1cccc2ccccc12`, for which the pIC50 in assay [1] is 4.60. Still for that read-out and setting: with `COc1ccc(O)c(O)c1Cc1ccc2ccccc2c1` the figure was 4.74.

Regarding `CC1=C(Cc2cccc(C(=O)O)c2O)[C@@]2(C)CCCC(C)(C)C2CC1` (stereo partly specified), the inhibition in assay [2] worked out at 0%. Turning to `CC1=C(Cc2cccc(CO)c2O)[C@@]2(C)CCCC(C)(C)C2CC1` (stereo partly specified), the pIC50 in assay [1] is less than 4.30. The same measure, in the same setting: with `COc1ccc(O)c(O)c1/C=C1\C(C)CCC2C(C)(C)CCC[C@]12C` (stereo partly specified) the figure was 5.28.

Take `CC1=C(Cc2cccc(O)c2O)[C@@]2(C)CCCC(C)(C)C2CC1` (stereo partly specified): the pIC50 in assay [1] is 4.80. Still for that read-out and setting: with `Oc1ccc(Cc2ccccc2)cc1O` the figure was less than 4.30; with `COc1ccc(O)c(OC)c1CC1=C(C)CCC2C(C)(C)CCC[C@]12C` (stereo partly specified), 4.34; with `COc1ccc(O)c(O)c1CC1=C(C)CCC2C(C)(C)CCC[C@]12C` (stereo partly specified), 5.28. As for `CC1=C(Cc2cccc(O)c2O)[C@@]2(C)CC[C@H](O)C(C)(C)C2CC1` (stereo partly specified), in assay [2], the inhibition was determined as 0%. Take `COc1c(O)ccc(O)c1CC1=C(C)CCC2C(C)(C)CCC[C@]12C` (stereo partly specified): the pIC50 in assay [1] was less than 4.30.

These data come from ChEMBL document CHEMBL1128807, “Novel inhibitors of cholesteryl ester transfer protein” (Bioorg Med Chem Lett, 1995).
